The values below come from PubChem BioAssay (NCI).

Common to all, as to assay: inhibition of tumour cell growth, NCI panel, 48 h
The subject of assay [1] is HCT-116 colon.
The test system of assay [2] is KM12 colon.
In assay [3] the test system is MALME-3M melanoma.
In assay [4] the test system is OVCAR-5 ovarian.
Assay [5] deals with SF-295 CNS.
The subject of assay [6] is T-47D breast.
In assay [7] the test system is MOLT-4 leukemia.
Assay [8] relates to NCI-H522 lung.
Assay [9] has as its system SNB-19 CNS.
The subject of assay [10] is SR leukemia.
Assay [11] concerns MCF7 breast.

Several values for one entry are separate records, joined by “and”; a condition that tells them apart may be missing. Identical values can stand only once.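 Values below derive from 48-hour exposures of cells grown in 96-well plates, with endpoints linearly interpolated between the two concentrations bracketing the appropriate inhibition level. At the GI50, growth is halved. TGI denotes the concentration required for complete inhibition of growth.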 Where only a bound is given, the exact number is not on record here.

As to `O=C(CCc1ccc(O)cc1)c1c(O)cc(O)cc1OC1OC(CO)C(O)C(O)C1O` (centres undefined), the TGI in assay [1], in [2], in assay [3], in assay [4], in assay [5] and in assay [6] was greater than 100 µM in each case.

On to `c1ccc(N=c2snc(-c3ccccc3)s2)cc1`, for which the TGI in assay [1], in assay [2], in assay [3], in [7], in assay [8] and in assay [9] was greater than 100 µM in each case. Besides, in assay [10], the TGI was greater than 100 µM.

Turning to `CC(=O)CC(=O)c1cc2c(=O)oc(C)cc2oc1=O`, the TGI in [1], in assay [2], in assay [3], in assay [11], in assay [7] and in [8] was greater than 37.5 µM each time. The TGI in assay [4], in assay [5], in assay [9] and in assay [10] was greater than 37.5 µM each time.

For `Cc1oc2nc(N(C)C)n3nnnc3c2c1C`, the TGI in assay [1], in [2], in assay [11], in assay [7], in assay [8] and in assay [4] was greater than 100 µM throughout. Further, the TGI in [5], in assay [9] and in [6] was greater than 100 µM throughout.

For `C(=Nc1ccc(-c2nc3ccccc3s2)cc1)c1ccco1`, the TGI in assay [1], in [2], in assay [3], in assay [7], in assay [8] and in assay [4] was greater than 100 µM in each case. In addition, the TGI in [5] is 59.1 µM; in assay [9], greater than 100 µM; in [10], greater than 100 µM; in [6], greater than 100 µM.

`COc1ccc2c(c1)C(=O)c1ccccc1C2`: the TGI in assay [1], in [2], in assay [11], in assay [7], in [8] and in [4] was greater than 100 µM throughout. Further, the TGI in assay [5] was greater than 100 µM; in assay [9], greater than 100 µM; in [10], greater than 100 µM; in assay [6], 67.8 µM.

With `Nc1ncnc2c1ncn2C(=O)NC12CC3CC(CC(C3)C1)C2`, the TGI in assay [1], in assay [2], in assay [3], in [11], in assay [7] and in assay [4] was greater than 100 µM throughout. Besides, the TGI in assay [5], in assay [9] and in [6] was greater than 100 µM in each case.

As to `O=C1C(Cl)N(c2ccccc2)C1c1c[nH]c2ccccc12` (centres undefined), the TGI in [1], in assay [2], in [3], in assay [7], in assay [8] and in assay [4] was greater than 100 µM in each case. The TGI in assay [5], in [9] and in assay [10] was greater than 100 µM each time.

On to `C[C@@H]1C[C@H](O)[C@]2(O)O[C@@H]3C[C@@]4(C=O)[C@@H](CC=C5[C@@H]4CC[C@]4(C)[C@@H](C6=CC(=O)OC6)CC[C@]54O)C[C@H]3O[C@@H]2O1`, for which the TGI in [1] turned out to be 0.036 µM; in assay [2] it was 0.749 µM; in assay [3], 0.0532 µM; in [8] it was 0.0468 µM; in [4], 0.492 µM; in [5] it was 0.627 µM. Moreover, the TGI in assay [9] is 0.93 µM; in assay [6], 0.325 µM.

For the compound `CC(C)(CO)N1C(=O)c2ccccc2C1(O)c1ccc(Cl)cc1` (centres undefined), the TGI in assay [1], in assay [2], in assay [3], in [11], in assay [7] and in [8] was greater than 100 µM each time. For the same compound, the TGI in [4], in assay [5], in [9] and in [6] was greater than 100 µM in each case.

`COc1ccc(NC2Oc3cc4c(cc3C(c3cc(OC)c(OC)c(OC)c3)C2C)OCO4)cc1` (centres undefined): the TGI in assay [1] was 19.1 µM; in assay [2], greater than 31.6 µM; in assay [3], greater than 100 µM; in assay [11], greater than 41.3 µM; in assay [7] it was greater than 100 µM; in assay [8], 2.45 µM. In addition, the TGI in assay [4] was greater than 100 µM; in assay [5], 0.971 µM; in assay [9], greater than 100 µM.

Take `COc1cc([C@@H]2c3cc4c(cc3C[C@H]3COC(=O)[C@@H]32)OCO4)cc(OC)c1OC`: the GI50 in assay [1] was 0.0026 µM and 0.00848 µM; in [2] it was 0.00389 µM and 0.005 µM; in assay [3], 0.00681 µM; in assay [11], 0.00506 µM; in assay [7] it was 0.00428 µM; in [8] it was 0.003 µM and 0.00924 µM. Besides, the GI50 in [4] was 0.00692 µM; in [5] it was 0.00296 µM; in assay [9] it was 0.00666 µM. The TGI in assay [2] is greater than 50 µM; in [3], greater than 50 µM; in assay [11], 2.03 µM; in assay [7], 0.12 µM; in assay [8] it was 0.00689 µM; in [4] it was greater than 50 µM. For the same compound, the TGI was 0.00833 µM in assay [5] and greater than 7.93 µM in assay [9].

In the case of `C[C@]12CC/C(=N\O)C=C1CC[C@@H]1[C@@H]2CC[C@]2(C)C(=N/O)/C(=C/c3cccnc3)C[C@@H]12`, the TGI in assay [1] was greater than 100 µM; in assay [2], 32.1 µM; in assay [3] it was 72.3 µM; in assay [11] it was 29.2 µM; in assay [7], 4 µM; in assay [8], 45.2 µM. Besides, the results for the TGI in assay [4], in assay [5] and in [9] were 75.3 µM, 31.7 µM and greater than 100 µM, respectively.

Take `OCc1ccccc1C1CSCSC1`: the TGI in [1], in assay [2], in assay [3], in [7], in assay [8] and in assay [5] was greater than 100 µM each time.
